Laboratory results taken from publication PMC6097146, “Drug‐Bearing Supramolecular MMP Inhibitor Nanofibers for Inhibition of Metastasis and Growth of Liver Cancer” (Advanced Science, 2018).
≈ marks a conversion by molar mass, not a printed value. Where no end group is shown, it is not given here.

What was measured:
SMMC7721 cells [1] = experiment: In vitro migration assay (transwell); format: cell-based; details: SMMC7721 cells treated 24 h with 2.5 µg mL^−1 DOX/well, then 24 h transwell incubation, crystal violet
Method: Microscopy images of b) migration and c) invasion and e,f) quantitative analysis of SMMC7721 cells that passed through the membrane. […] Cells without treatments were used as control.
Then, 500 µL of media were added to the lower chamber as a chemoattractant. […] Cells that got through the membrane and were located on the lower surface were fixed using 4% paraformaldehyde, stained with crystal violet, and quantified with a microplate reader (Leica, Germany).

[2] = tested on: SMMC7721 pulmonary metastasis; experiment: SMMC7721 pulmonary metastatic mouse model; format: in vivo; details: SMMC7721 cells injected through the tail vein into nude mice, day 21, compared with saline/control group, n = 6
Method: The antimetastatic effects were evaluated by determining the number of metastatic nodules and the degree of H&E staining in the lung tissues.
(§1) Data are given as the mean ± SD (n = 6).
Then, mice were sacrificed and photographed, and the primary tumors and the lungs were striped, and then washed with cold PBS. […] For pulmonary metastatic assays, SMMC7721 cells were trypsinized, suspended in complete medium at a density of 1 × 10^7 cells mL^−1, and then immediately intravenously injected into the nude mice through the tail vein. Images of metastatic nodules on the lungs were obtained with a camera and nodules were counted; histological sections of lungs were stained with H&E for the histopathological examination.

SMMC7721 tumors = experiment: Inhibition of liver tumor growth in mice bearing SMMC7721 tumors; format: in vivo; details: intratumor injection, 5 mg kg^−1 DOX, versus saline and KGFRWR groups
Method: At the end of the experiment, tumors were photographed and weighed.
The body weight and tumor volume were recorded and calculated three times a week for three weeks. The tumor length (L), which is the longest diameter of the tumor, and width (W), which is the diameter in the direction perpendicular to the length, were measured using Vernier calipers, and the tumor volume (V) was counted using the following formula: V = LW ^2/2. Then, mice were sacrificed and photographed, and the primary tumors and the lungs were striped, and then washed with cold PBS. Primary tumors were weighed and photographed. Histological sections of the primary tumors were used for the following three purposes: first, the sections were stained with H&E to detect tumor apoptosis and necrosis; second, TUNEL staining was used to detect DNA fragmentation in the nucleus of late apoptotic cells in the tissue; and third, sections were incubated with an anticaspase‐3 rabbit antibody (1:200 dilution) followed by a horseradish peroxidase‐labeled antirabbit immunoglobulins (Abcam, UK) for color development and then counterstained with hematoxylin.

[3] = rat, in vivo
Method: The dynamic behavior of the nanofiber was monitored at predetermined intervals after injection by liquid chromatography‐tandem mass spectrometry (LC/MS/MS).
The rats were anaesthetized with ether. A heparinized capillary was then inserted into eyeground veins to obtain 0.3 mL of blood in a plastic centrifuge tube. Plasma samples were collected by centrifugation at 12 000 rpm for 5 min and then stored immediately at −20 °C until analysis. Next, 300 µL of acetonitrile containing an internal standard (clarithromycin, 20 ng mL^−1) were added to the 100 µL plasma samples to precipitate protein, the mixture was centrifuged at 13 000 rpm for 5 min, and 50 µL of supernatant were assayed by LC/MS/MS.

SMMC7721 cells [4] = experiment: MTT cell toxicity assay; format: cell-based; details: 24 h incubation, mean ± SD (n = 6)
Method: as §1
Cell Toxicity Assay: Cytotoxicity in SMMC7221 cells was quantified using an MTT assay. Cells were incubated in Dulbecco's modified Eagle medium (DMEM) medium containing 10% fetal calf serum at 37 °C in an atmosphere of 5% CO2 in air. For the cytotoxicity assay, SMMC7721 cells were precultured in 96‐well cell culture plates at a density of 1.0 × 10^5 cells per well in 100 µL of medium and grown overnight.

MMP-2 = target: T1, MMP-2 (Homo sapiens, UniProt P08253); experiment: MMP-2 inhibitor screening assay (fluorescent substrate method); format: biochemical
T1 sequence (P08253 110-660): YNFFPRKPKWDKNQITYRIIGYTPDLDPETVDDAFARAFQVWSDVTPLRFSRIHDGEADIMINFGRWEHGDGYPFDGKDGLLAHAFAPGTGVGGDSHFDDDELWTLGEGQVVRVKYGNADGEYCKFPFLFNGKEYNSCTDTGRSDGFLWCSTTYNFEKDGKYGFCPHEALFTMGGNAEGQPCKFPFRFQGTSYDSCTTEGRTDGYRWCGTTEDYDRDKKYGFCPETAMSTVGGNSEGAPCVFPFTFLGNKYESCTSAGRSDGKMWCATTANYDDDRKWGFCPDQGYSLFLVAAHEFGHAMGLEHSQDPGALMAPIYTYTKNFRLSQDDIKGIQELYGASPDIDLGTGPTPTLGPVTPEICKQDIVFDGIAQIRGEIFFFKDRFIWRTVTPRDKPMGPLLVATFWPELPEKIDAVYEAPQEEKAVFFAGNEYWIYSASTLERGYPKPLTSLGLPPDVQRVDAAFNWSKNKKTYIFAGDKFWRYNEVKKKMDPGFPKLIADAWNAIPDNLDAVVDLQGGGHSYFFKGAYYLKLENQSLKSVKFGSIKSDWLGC
Method: MMP‐2 Inhibitor Screening Assay: The MMP‐2 inhibitory activity of the samples was analyzed using a fluorescent substrate method, as previously described.23 The MMP substrate peptide MOCAC‐Pro‐Leu‐Gly‐Leu‐Dap(Dnp)‐Ala‐Arg‐NH2 was purchased from Sigma. […] The fluorescence intensity was measured at 328 nm for excitation and 393 nm for emission every 15 min for a 2 h period without interrupting the reaction using a fluorescence microplate reader (POLARstar Omega, Germany).

Molecule	migration rate compared with control (SMMC7721 cells [1])	number of pulmonary metastatic nodules [2]	tumor growth (in words) (SMMC7721 tumors)	T1/2 [3]	T max [3]	IC50 (SMMC7721 cell growth) (SMMC7721 cells [4])	IC50 (MMP-2)
COc1cccc2c1C(=O)c1c(O)c3c(c(O)c1C2=O)C[C@@](O)(C(=O)CO)C[C@@H]3O[C@H]1C[C@H](N)[C@H](O)[C@H](C)O1 [DOX, doxorubicin]	39.4%	distinctly decreased	inhibited tumor growth	6.90 ± 1.20 h	0.43 ± 0.16 h	1.888 µg/mL (≈ 3.47 µM)	
KGFRWR-NH2 [KGFRWR]							14.2 µM
